# Data published in BindingDB's records for doi:10.1021/jm0001976 (Merck Research Laboratories, 2000).
# Biological target: Histone deacetylase (Eimeria tenella)
# Test: Tested for Histone deacetylase enzyme inhibition assay using Eimeria tenella extract
row,Structure (SMILES),IC50 [nM]
1,CCC(=O)CCCCC[C@@H]1NC(=O)[C@H]2CCCCN2C(=O)[C@H]([C@@H](C)CC)NC(=O)[C@H](c2cn(OC)c3ccccc3c2=O)NC1=O,3.8
2,CCC(=O)CCCCC[C@@H]1NC(=O)[C@H]2CCCCN2C(=O)[C@H]([C@@H](C)CC)NC(=O)[C@H](c2cn(CC)c3ccccc3c2=O)NC1=O,11
3,CCC(=O)CCCCC[C@@H]1NC(=O)[C@H]2CCCCN2C(=O)[C@H]([C@@H](C)CC)NC(=O)[C@H](c2cn(C)c3ccccc3c2=O)NC1=O,9
4,CCCn1cc([C@@H]2NC(=O)[C@H](CCCCCC(=O)CC)NC(=O)[C@H]3CCCCN3C(=O)[C@H]([C@@H](C)CC)NC2=O)c(=O)c2ccccc21,28
